The values below come from publication PMC7369893, “Antimicrobial Peptides Display Strong Synergy with Vancomycin Against Vancomycin-Resistant E. faecium, S. aureus, and Wild-Type E. coli” (International Journal of Molecular Sciences, 2020).

Data set [1] deals with E. faecium BCRC 15B0132 (VRE). As to the kind of experiment: microbe, parasite or virus in culture. Particulars: BCRC 15, 16 h. It is filed as cell-based, Enterococcus faecium. Here is the method:
(§1) The antibacterial activities of peptides were determined by the standard broth microdilution method according to the guidelines of the Clinical and Laboratory Standards Institute (CLSI). Briefly, E. coli ATCC 25922 were incubated in MHB, and E. faecium BCRC 15B0132, VISA and VRSA strains were incubated in TSB overnight at 37 °C. The cell cultures were regrown to the mid-log phase and subsequently diluted to a final concentration of 5 × 10^5 CFU/mL. The 1 µL peptides or antibiotic were loaded into each well at the final concentration of 64, 32, 16, 8, 4, 2, 1, and 0.5 µg/mL, then loaded 99 µL diluted microbes into each well of polypropylene 96-well plate. After 16 h of incubation at 37 °C, the turbidity at OD600 was measured by the microplate reader. The minimal inhibitory concentration (MIC) value was defined as the lowest concentration of peptide or antibiotic, which inhibited the 90% visible growth of bacteria. All experiments were repeated three times independently.

The test system of data set [2] is Vancomycin-intermediate S. aureus 01 (VISA01). Kind of data set: microbe, parasite or virus in culture. It is filed as cell-based, Staphylococcus aureus. The note with it: Vancomycin-intermediate 01 (VISA01, 16 h). As to the method: as §1
In data set [3] the test system is Vancomycin-intermediate S. aureus 02 (VISA02). Kind of data set: microbe, parasite or virus in culture. The data set is classed as cell-based, Staphylococcus aureus. The note with it: Vancomycin-intermediate 02 (VISA02, 16 h). As to the method:
as §1

In data set [4] the test system is Vancomycin-intermediate S. aureus 03 (VISA03). As to the kind of experiment: microbe, parasite or virus in culture. It is filed as cell-based, Staphylococcus aureus. Particulars: Vancomycin-intermediate 03 (VISA03, 16 h). As to the method:
as §1

Data set [5] concerns Vancomycin-resistant S. aureus 01 (VRSA01). As to the kind of experiment: microbe, parasite or virus in culture. The note with it: VRSA01 (induced from VISA01 by serial passage); CLSI broth microdilution, TSB, 5 × 10^5 CFU/mL, 16 h, 37 °C; triplicate. The data set is classed as cell-based, Staphylococcus aureus. Here is the method: (§2) For the purpose of inducing vancomycin-resistant Staphylococcus aureus (VRSA), the VISA01, VISA02, and VISA03 bacteria were incubated overnight in culture medium, and transferring 50 µL of bacteria to 5 mL of fresh medium containing 2 μg/mL of vancomycin then incubated overnight. The bacteria were transferred to new tube with doubling vancomycin concentration and then incubated overnight again. The concentration of vancomycin during serial passage was 2, 4, 8, 16, and 32 µg/mL. The procedure was repeated until meeting the final concentration of 32 µg/mL. After serial passage, the cell resistance was confirmed by using an MIC assay.
as §1

The test system of data set [6] is Vancomycin-resistant S. aureus 02 (VRSA02). Kind of data set: microbe, parasite or virus in culture. The data set is classed as cell-based, Staphylococcus aureus. Particulars: VRSA02 (induced from VISA02 by serial passage); CLSI broth microdilution, TSB, 5 × 10^5 CFU/mL, 16 h, 37 °C; triplicate. Here is the method: as §2, §1
Data set [7] has as its system Vancomycin-resistant S. aureus 03 (VRSA03). Kind of data set: microbe, parasite or virus in culture. It is filed as cell-based, Staphylococcus aureus. The note with it: VRSA03 (induced from VISA03 by serial passage); CLSI broth microdilution, TSB, 5 × 10^5 CFU/mL, 16 h, 37 °C; triplicate. Here is the method:
as §2, §1

Data set [8] has as its system E. coli ATCC 25922. As to the kind of experiment: microbe, parasite or virus in culture. Particulars: ATCC 25922, 16 h. The data set is classed as cell-based, Escherichia coli. Here is the method: as §1
Data set [9] has as its system VRE, VISA, VRSA and E. coli strains. Kind of data set: Checkerboard assay, summary statements of the text over the strain panel. It is filed as cell-based. Particulars: peptide at ¼ ×MIC combined with vancomycin, all strains studied. As to the method:
The synergistic effects of peptides in combination with vancomycin were investigated by checkerboard assay with slight modification. The peptides were fixed concentration at ¼ × MIC, then in combination with antibiotics at various concentrations in each well of 96-well plate. Then the peptide/antibiotic were mixed with inoculum (5 × 10^5 CFU/mL) and incubated at 37 °C for 16 h. The fractional inhibitory concentration (FIC) index was calculated as follows: FIC index = (MIC of drug A in combination/MIC of drug A alone) + (MIC of drug B in combination/MIC of drug B alone). An FIC index of ≤ 0.5 was defined as synergy, indifference was defined as an FIC index of 0.5 < FICI ≤ 4, antagonism was defined as an FIC index of > 4. The experiments were performed in triplicate.

The test system of data set [10] is E. faecium BCRC 15B0132 (VRE). As to the kind of experiment: Time killing assay. It is filed as cell-based, Enterococcus faecium. The note with it: 5 × 10^5 CFU/mL, 1 × MIC, 0.5-24 h, 37 °C, triplicate. As to the method:
(§3) The bactericidal activities of vancomycin, P-113, Phe-P-113, Bip-P-113, Dip-P-113, and Nal-P-113 against E. faecium BCRC 15B0132 (VRE) and E. coli ATCC 25922 were assessed by the time-kill analysis. The cells were grown overnight in TSB or MHB at 37 °C with shaking, and then fresh TSB or MHB was inoculated for growth to mid-logarithmic phase. Bacteria (5 × 10^5 CFU/mL) were treated with 1 × MIC vancomycin, P-113, Phe-P-113, Bip-P-113, Dip-P-113, and Nal-P-113 for 0.5, 1, 2, 4, 6, 10, and 24 h at 37 °C. Bacteria without peptides and vancomycin served as a control. Aliquots were removed at each time points, and 10-fold serial dilutions of the aliquot were plated onto the Müller-Hinton agar. The numbers of CFU were counted after 24 h of incubation at 37 °C. The detection limit for the colony counts was 2log10 CFU/mL.

In the next data set the test system is E. faecium BCRC 15B0132. Kind of data set: Uptake of BODIPY-labeled vancomycin, confocal laser scanning microscopy. It is filed as cell-based, Enterococcus faecium. The note with it: VRE 10^7 CFU/mL, 0.5 ×MIC peptide 30 min at 37 °C, then BODIPY-labeled vancomycin (2 μg/mL) 30 min; mean fluorescence intensity. Here is the method:
(§4) The fluorescence experiments were performed with slight modification as described previously. Briefly, the bacteria (10^7 CFU/mL) were incubated with 0.5 ×MIC antimicrobial peptides for 30 min and then treated with BODIPY-labeled vancomycin (2 μg/mL) for 30 min. Samples treated with BODIPY-labeled vancomycin only served as a control. After incubation, bacteria were centrifuged at 8000× g for 5 min, washed three times with PBS to remove unbinding fluorescence dye, and resuspended by PBS. The resuspended solution were loaded on the glass slides (Polysine™, Thermo Fisher Scientific, Waltham, MA, USA) and visualized under confocal laser scanning microscope (LSM 510 META, Carl Zeiss, Jena, Thüringen, Germany) equipped with a 64× oil objective lens (Carl Zeiss, Jena, Thüringen, Germany).

The subject of data set [11] is E. coli ATCC 25922. Described as above. The data set is classed as cell-based, Escherichia coli. Particulars: E. coli 10^7 CFU/mL, 0.5 ×MIC peptide 30 min at 37 °C, then BODIPY-labeled vancomycin (2 μg/mL) 30 min; mean fluorescence intensity. Here is the method:
as §4

For data set [12] the following is noted: POPC:POPG (3:1, mol/mol) and POPC:LPS (4:1, mol/mol) LUVs; cited from earlier work. From the text:
Dathe and coauthors used POPC:LPS as model prokaryotic membranes to study peptide activity against E. coli and the role of LPS [20]. Previously, we have evaluated the membrane-permeability of P-113 and its derivatives by measuring the release of calcein from various phospholipid vesicles such as POPC:POPG (3:1, mol/mol) LUVs (mimic the anionic bacterial membrane) and POPC:LPS (4:1, mol/mol) LUVs (served as surrogates of Gram-negative bacterial membranes that contain LPS). […] Nal- ...

A further data set concerns human fibroblasts (HFW). Particulars: peptide >25 µg/mL; cited from earlier work.
The test system of another data set is Gram-negative bacteria. Particulars: cited from earlier work. An excerpt: CLP-19 was derived from the core domain of Limulus anti-LPS factor (LALF; amino acids 31–52) with a sequence of ([…]) and a head to tail disulfide bond. It is likely that the positive charges of CLP-19 can interact with the negative charges of LPS and the hydrophobic part of CLP-19 can bind to the f ...

Data set [13] concerns VRE, VISA, VRSA, and E. coli strains. As to the kind of experiment: microbe, parasite or virus in culture. The data set is classed as cell-based. Particulars: all strains studied (VRE, VISA 01-03, VRSA 01-03, E. coli), Table 2. Here is the method: as §1
Data set [14] relates to E. coli ATCC 25922. Kind of data set: Time killing assay. The data set is classed as cell-based, Escherichia coli. Particulars: E. coli ATCC 25922, 5 × 10^5 CFU/mL, 1 × MIC, 0.5-24 h, 37 °C; triplicate. As to the method: as §3

Converted amounts (≈) assume the structure as drawn. Positions of bridges follow the written chain, without caps; N, C: chain ends. Non-standard residues stand in square brackets, D forms with d. Residues, ends and D or L forms follow the SMILES beside them. No end group written: not given here. Dip = N[C@H](C(=O)O)C(c1ccccc1)c1ccccc1; 2Nal = N[C@@H](Cc1ccc2ccccc2c1)C(=O)O

Take `CC(=O)N[C@@H](C)C(=O)N[C@@H](CCCCN)C(=O)N[C@@H](CCCNC(=N)N)C(=O)N[C@H](C(=O)N[C@H](C(=O)NCC(=O)N[C@@H](Cc1ccc(O)cc1)C(=O)N[C@@H](CCCCN)C(=O)N[C@@H](CCCNC(=N)N)C(=O)N[C@@H](CCCCN)C(=O)N[C@@H](Cc1ccccc1)C(=O)N[C@H](C(N)=O)C(c1ccccc1)c1ccccc1)C(c1ccccc1)c1ccccc1)C(c1ccccc1)c1ccccc1` [Dip-P-113] (Ac-AKR[Dip][Dip]GYKRKF[Dip]-NH2): the MIC worked out at 4 µg/mL (≈ 2.15 µM) in [1]; 16 µg/mL (≈ 8.58 µM) in data set [2]; 16 µg/mL (≈ 8.58 µM) in data set [3]; 16 µg/mL (≈ 8.58 µM) in data set [4]; 32 µg/mL (≈ 17.2 µM) in data set [5]; 32 µg/mL (≈ 17.2 µM) in data set [6]. The MIC in data set [7] came to 32 µg/mL (≈ 17.2 µM); with E. coli ATCC 25922 [8], 64 µg/mL (≈ 34.3 µM). The “synergy with vancomycin (interpretation of FICI)” value in [9] was “synergistic effects against VRE, VRSA 02, and E. coli”. In addition, the killing kinetics result in [10] is given as “rapid bactericidal activity”. Moreover, the “entry of BODIPY-labeled vancomycin into the bacteria (rank order)” value was “Bip-P-113 = Nal-P-113 > Dip-P-113 > Phe-P-113 = P-113” in the data set with E. faecium BCRC 15B0132 and “Bip-P-113 > Nal-P-113 > Dip-P-113 > Phe-P-113 = P-113” with E. coli ATCC 25922 [11]. For the same compound, the “calcein leakage from LUVs” value in [12] is “dose-dependent calcein leakage”. In addition, the “cell death (MTT)” value in the data set with human fibroblasts (HFW) was 10–20%.
On to “CHYRIKPTFRRLKWKYKGKFWC (disulfide 1-22 (inferred)) [CLP-19, antimicrobial peptide derived from the core domain of Limulus anti-LPS factor, with a disulfide bond]”, for which, in the data set on Gram-negative bacteria, the “antibiotic-induced release of LPS” value was “reduce antibiotic-induced release of LPS”.
Consider `CC(=O)N[C@@H](C)C(=O)N[C@@H](CCCCN)C(=O)N[C@@H](CCCNC(=N)N)C(=O)N[C@@H](Cc1ccc2ccccc2c1)C(=O)N[C@@H](Cc1ccc2ccccc2c1)C(=O)NCC(=O)N[C@@H](Cc1ccc(O)cc1)C(=O)N[C@@H](CCCCN)C(=O)N[C@@H](CCCNC(=N)N)C(=O)N[C@@H](CCCCN)C(=O)N[C@@H](Cc1ccccc1)C(=O)N[C@@H](Cc1ccc2ccccc2c1)C(N)=O` [Nal-P-113] (Ac-AKR[2Nal][2Nal]GYKRKF[2Nal]-NH2), for which the MIC in [1] came to 4 µg/mL (≈ 2.24 µM); in data set [2], 8 µg/mL (≈ 4.48 µM); in data set [3] it was 8 µg/mL (≈ 4.48 µM); in data set [4] it was 8 µg/mL (≈ 4.48 µM); in data set [5], 8 µg/mL (≈ 4.48 µM); in [6], 8 µg/mL (≈ 4.48 µM). For the same compound, the results for the MIC (in data set [7]; against E. coli ATCC 25922 [8]) were 16 µg/mL (≈ 8.96 µM) and 32 µg/mL (≈ 17.9 µM), respectively. Moreover, the “MICs against these bacterial strains” value in data set [13] is “best MICs”. Besides, the “synergy with vancomycin (interpretation of FICI)” value in [9] was “synergistic effects against VRE, VISA 03, VRSA 01, VRSA 02, VRSA 03, and E. coli”. Further, the results for the killing kinetics entry (in data set [10]; with E. coli ATCC 25922 [14]) were “rapid bactericidal activity” and “fastest bactericidal activity”, respectively. For the same compound, the “entry of BODIPY-labeled vancomycin into the bacteria (rank order)” value in the data set on E. faecium BCRC 15B0132 is on record as “Bip-P-113 = Nal-P-113 > Dip-P-113 > Phe-P-113 = P-113”; in the data set with E. coli ATCC 25922 [11] it was “Bip-P-113 > Nal-P-113 > Dip-P-113 > Phe-P-113 = P-113”. Further, the “calcein leakage from LUVs” value in data set [12] is recorded as “dose-dependent calcein leakage”. Further, the “cell death (MTT)” value with human fibroblasts (HFW) is listed as 10–20%.
